Results taken from US12552792B2, “Solid forms of an FGFR inhibitor and processes for preparing the same” (Incyte Corporation, priority 2018, dated 2026).
Where “and” joins values, the source holds several entries; their conditions need not be identical. Equal entries are not always repeated.

How the values were obtained:
[1] = tested on: patients with advanced/metastatic or surgically unresectable cholangiocarcinoma; assay: Phase 2 clinical study in advanced/metastatic or surgically unresectable cholangiocarcinoma; conditions: for median PFS; Median time to events (95% Cl), months: Kaplan-Meier
Excerpt: The study also considers exposure-response analyses for key efficacy and safety parameters.
The study enrolls approximately 100 subjects into Cohort A (FGFR2 translocations), 20 subjects into Cohort B (other FGF/FGFR alterations), and 20 subjects into Cohort C (US only, negative for FGF/FGFR alterations). […] Treatment will start on Day 1. Subjects undergo regular safety assessments during treatment as well as regular efficacy assessments. Subjects are allowed to continue administration in 21-day cycles until documented disease progression or unacceptable toxicity is reported.
One cycle is defined as 21 days.
The study subjects are those with advanced/metastatic or surgically unresectable cholangiocarcinoma with FGFR2 translocations, with other FGF/FGFR alterations, or who are negative for any FGF/FGFR alterations, who failed at least 1 previous treatment.
The key inclusion criteria include men and women, aged 18 or older. The subjects have histologically or cytologically confirmed advanced/metastatic or surgically unresectable cholangiocarcinoma. Subjects in Cohort A have FGFR2 translocations with a documented fusion partner in central laboratory report. Subjects in Cohort B have other FGF/FGFR alterations. Subjects in Cohort C (US only) are negative for FGF/FGFR alterations. Additional key inclusion criteria include radiographically measureable disease per RECIST v. 1.1; documentation of FGF/FGFR gene alteration status; documented disease progression after at least 1 line of prior systemic therapy; ECOG performance status of 0 to 2; a life expectancy greater than or equal to 12 weeks; adequate hepatic function; adequate renal function; serum phosphate≤institutional ULN; and serum calcium within institutional normal range.
The study schedule and procedures include regularly scheduled study visits at the clinical site as part of a 21-day cycle. Study visits begin with a prescreening to obtain FGF/FGFR status if unknown (results within approximately 2 years of screening are valid). Screening takes place on day −28 through day −1. Cycle 1 occurs on days 1, 8, and 15. Cycles 2+ begin on day 1. A safety follow up occurs 30 days (+5 days) from date of last dose. Disease status follow-up occurs every 9 weeks for subjects who discontinue for reasons other than disease progression. There is a survival follow-up every 12 weeks after discontinuation. […] Study visits include sample collection for hematology, chemistry, coagulation, endocrine monitoring, lipids, and urinalysis testing. Additionally, HIV screening (required for subjects outside the US) and hepatitis screening (serology) is done at screening. Pregnancy testing is also be done at screening, Day 1 of every cycle before dose administration, and at end-of-treatment. FGF/FGFR status may be determined locally.
Tumor tissue is evaluated through the central laboratory for confirmation of FGF/FGFR alteration status. Blood samples for population pharmacokinetic analysis and whole blood pharmacodynamics and correlative studies are collected at various time points throughout the study and analyzed at the central laboratory or designee.
Adverse event assessments, vital signs, electrocardiograms, physical examination, ECOG performance status comprehensive eye examination, and tumor and disease response assessments are performed by the investigative site. An objective assessment of disease status is performed at screening. Subsequently, disease status including RECIST radiological response assessment is assessed every 2 cycles for the first 4 cycles and every 3 cycles thereafter. A central radiology group provides centralized reading on all assessments.
The primary endpoint of the study is to determine the objective response rate (ORR) in subjects with FGFR2 translocations based on the central genomics laboratory results.

[2] = Competitive slurry experiments with mixed Compound 1 polymorphs (XRPD); format: physicochemical; conditions: for Solid State Form after competitive slurry: saturated Form I solution + 5 mg each of Form I through Form XXVI, stirred overnight, XRPD; for Competitive slurry result (form by XRPD): DCM/MeOH (9:1, 0.6 mL), 5 mg each of Form I through Form XXVI
Experimental: To evaluate the transformation of solid forms of Compound 1, competitive slurry experiments were performed as follows. To the saturated solution of Form I in the solvent as listed in Table 11 was added Form I (5 mg), then 5 mg each of Form II through Form XXVI.
The slurry was stirred overnight, filtered and analyzed by XRPD.
A competitive slurry experiment was conducted in dichloromethane/methanol (9/1) according to the procedure in Table 12. The mixture of forms (Form I through Form XXVI) was converted to Form II after 15 min as shown by XRPD at various time points including 15 mins, 1 h, 18 h and 3 days, which indicated the Form II was consistently obtained.

[3] = Cohort A (FGFR2 translocations), preliminary
[4] = Cohort A (n = 47), independent reviewer
[5] = Cohort B (n = 22), independent reviewer
[6] = Cohort C (n = 18), independent reviewer
[7] = all patients, 13.5 mg QD 2-weeks-on/1-week-off

CCN1C(=O)N(c2c(F)c(OC)cc(OC)c2F)Cc2cnc3[nH]c(CN4CCOCC4)cc3c21 [Compound 1, 3-(2,6-difluoro-3,5-dimethoxyphenyl)-1-ethyl-8-(morpholin-4-ylmethyl)-1,3,4,7-tetrahydro-2H-pyrrolo[3′,2′:5,6]pyrido[4,3-d]pyrimidin-2-one]
Alopecia, TEAEs, All Grades, % of patients ([1]; All Cohorts (N = 89)): 41.6%
Alopecia, TEAEs, Grade 3/4, % of patients ([1]; All Cohorts (N = 89)): 0.0%
Alopecia, TRAEs, All Grades, % of patients ([1]; All Cohorts (N = 89)): 37.1%
Alopecia, TRAEs, Grade 3/4, % of patients ([1]; All Cohorts (N = 89)): 0.0%
Arthralgia, TEAEs, All Grades, % of patients ([1]; All Cohorts (N = 89)): 23.6%
Arthralgia, TEAEs, Grade 3/4, % of patients ([1]; All Cohorts (N = 89)): 6.7%
Arthralgia, TRAEs, All Grades, % of patients ([1]; All Cohorts (N = 89)): 11.2%
Arthralgia, TRAEs, Grade 3/4, % of patients ([1]; All Cohorts (N = 89)): 4.5%
Constipation, TEAEs, All Grades, % of patients ([1]; All Cohorts (N = 89)): 30.3%
Constipation, TEAEs, Grade 3/4, % of patients ([1]; All Cohorts (N = 89)): 0.0%
Constipation, TRAEs, All Grades, % of patients ([1]; All Cohorts (N = 89)): 11.2%
Constipation, TRAEs, Grade 3/4, % of patients ([1]; All Cohorts (N = 89)): 0.0%
Decreased appetite, TEAEs, All Grades, % of patients ([1]; All Cohorts (N = 89)): 37.1%
Decreased appetite, TEAEs, Grade 3/4, % of patients ([1]; All Cohorts (N = 89)): 2.2%
Decreased appetite, TRAEs, All Grades, % of patients ([1]; All Cohorts (N = 89)): 24.7%
Decreased appetite, TRAEs, Grade 3/4, % of patients ([1]; All Cohorts (N = 89)): 1.1%
Diarrhea, TEAEs, All Grades, % of patients ([1]; All Cohorts (N = 89)): 39.3%
Diarrhea, TEAEs, Grade 3/4, % of patients ([1]; All Cohorts (N = 89)): 2.2%
Diarrhea, TRAEs, All Grades, % of patients ([1]; All Cohorts (N = 89)): 29.2%
Diarrhea, TRAEs, Grade 3/4, % of patients ([1]; All Cohorts (N = 89)): 2.2%
Dry eye, TEAEs, All Grades, % of patients ([1]; All Cohorts (N = 89)): 20.2%
Dry eye, TEAEs, Grade 3/4, % of patients ([1]; All Cohorts (N = 89)): 1.1%
Dry eye, TRAEs, All Grades, % of patients ([1]; All Cohorts (N = 89)): 13.5%
Dry eye, TRAEs, Grade 3/4, % of patients ([1]; All Cohorts (N = 89)): 1.1%
Dry mouth, TEAEs, All Grades, % of patients ([1]; All Cohorts (N = 89)): 29.2%
Dry mouth, TEAEs, Grade 3/4, % of patients ([1]; All Cohorts (N = 89)): 0.0%
Dry mouth, TRAEs, All Grades, % of patients ([1]; All Cohorts (N = 89)): 23.6%
Dry mouth, TRAEs, Grade 3/4, % of patients ([1]; All Cohorts (N = 89)): 0.0%
Dysgeusia, TEAEs, All Grades, % of patients ([1]; All Cohorts (N = 89)): 36.0%
Dysgeusia, TEAEs, Grade 3/4, % of patients ([1]; All Cohorts (N = 89)): 0.0%
Dysgeusia, TRAEs, All Grades, % of patients ([1]; All Cohorts (N = 89)): 34.8%
Dysgeusia, TRAEs, Grade 3/4, % of patients ([1]; All Cohorts (N = 89)): 0.0%
Edema peripheral, TEAEs, All Grades, % of patients ([1]; All Cohorts (N = 89)): 22.5%
Edema peripheral, TEAEs, Grade 3/4, % of patients ([1]; All Cohorts (N = 89)): 1.1%
Edema peripheral, TRAEs, All Grades, % of patients ([1]; All Cohorts (N = 89)): 3.4%
Edema peripheral, TRAEs, Grade 3/4, % of patients ([1]; All Cohorts (N = 89)): 0.0%
Fatigue, TEAEs, All Grades, % of patients ([1]; All Cohorts (N = 89)): 36.0%
Fatigue, TEAEs, Grade 3/4, % of patients ([1]; All Cohorts (N = 89)): 4.5%
Fatigue, TRAEs, All Grades, % of patients ([1]; All Cohorts (N = 89)): 23.6%
Fatigue, TRAEs, Grade 3/4, % of patients ([1]; All Cohorts (N = 89)): 1.1%
Hyperphosphatemia, TEAEs, All Grades, % of patients ([1]; All Cohorts (N = 89)): 60.7%
Hyperphosphatemia, TEAEs, Grade 3/4, % of patients ([1]; All Cohorts (N = 89)): 0.0%
Hyperphosphatemia, TRAEs, All Grades, % of patients ([1]; All Cohorts (N = 89)): 55.1%
Hyperphosphatemia, TRAEs, Grade 3/4, % of patients ([1]; All Cohorts (N = 89)): 0.0%
Hypophosphatemia, TEAEs, All Grades, % of patients ([1]; All Cohorts (N = 89)): 25.8%
Hypophosphatemia, TEAEs, Grade 3/4, % of patients ([1]; All Cohorts (N = 89)): 13.5%
Hypophosphatemia, TRAEs, All Grades, % of patients ([1]; All Cohorts (N = 89)): 10.1%
Hypophosphatemia, TRAEs, Grade 3/4, % of patients ([1]; All Cohorts (N = 89)): 5.6%
Nausea, TEAEs, All Grades, % of patients ([1]; All Cohorts (N = 89)): 29.2%
Nausea, TEAEs, Grade 3/4, % of patients ([1]; All Cohorts (N = 89)): 0.0%
Nausea, TRAEs, All Grades, % of patients ([1]; All Cohorts (N = 89)): 15.7%
Nausea, TRAEs, Grade 3/4, % of patients ([1]; All Cohorts (N = 89)): 0.0%
Stomatitis, TEAEs, All Grades, % of patients ([1]; All Cohorts (N = 89)): 30.3%
Stomatitis, TEAEs, Grade 3/4, % of patients ([1]; All Cohorts (N = 89)): 3.4%
Stomatitis, TRAEs, All Grades, % of patients ([1]; All Cohorts (N = 89)): 27.0%
Stomatitis, TRAEs, Grade 3/4, % of patients ([1]; All Cohorts (N = 89)): 3.4%
Median OS ([1]; Cohort A (FGFR2 translocations)): 15.8 months
median PFS; Median time to events (95% Cl), months ([1]; Cohort A (FGFR2 translocations), 47 evaluable patients, independent reviewer): 9.2 months and 9.20 (6.44-NE) months
objective response rate (ORR) ([1]; Cohort A (FGFR2 translocations), 47 patients followed >=8 months, 13.5 mg QD 2-weeks-on/1-week-off, independent reviewer, preliminary): 40.4%
Disease control rate (DCR) [1, 3]: 85.1%
median duration of response (DOR) [1, 3]: has not been reached
probability of maintaining response for greater than or equal to six months [1, 3]: 86.2%
Best OR: CR, % of patients [1, 4]: (0.0) %
Best OR: NE, % of patients [1, 4]: (4.3) %
Best OR: PD, % of patients [1, 4]: (10.6) %
Best OR: PR, % of patients [1, 4]: (40.4) %
Best OR: SD, % of patients [1, 4]: (44.7) %
DCR [1, 4]: 85.1%
ORR [1, 4]: 40.4%
PFS Events, % ([1]; Cohort A, 47 evaluable patients): 46.8%
Best OR: CR, % of patients [1, 5]: (0.0) %
Best OR: NE, % of patients [1, 5]: (22.7) %
Best OR: PD, % of patients [1, 5]: (31.8) %
Best OR: PR, % of patients [1, 5]: (0.0) %
Best OR: SD, % of patients [1, 5]: (45.5) %
DCR [1, 5]: 45.5%
ORR [1, 5]: 0%
Median OS ([1]; Cohort B (other FGF/FGFR alterations)): 6.8 months
median PFS; Median time to events (95% Cl), months ([1]; Cohort B (other FGF/FGFR alterations), 22 evaluable patients, independent reviewer): 2.1 months and 2.10 (1.18-6.80) months
Disease control rate (DCR) ([1]; Cohort B (other FGF/FGFR alterations), preliminary): 45.5%
PFS Events, % ([1]; Cohort B, 22 evaluable patients): 77.3%
Best OR: CR, % of patients [1, 6]: (0.0) %
Best OR: NE, % of patients [1, 6]: (22.2) %
Best OR: PD, % of patients [1, 6]: (55.6) %
Best OR: PR, % of patients [1, 6]: (0.0) %
Best OR: SD, % of patients [1, 6]: (22.2) %
DCR [1, 6]: 22.2%
ORR [1, 6]: 0%
Median OS ([1]; Cohort C (negative for FGF/FGFR alterations)): 4.0 months
median PFS; Median time to events (95% Cl), months ([1]; Cohort C (negative for FGF/FGFR alterations), 18 evaluable patients, independent reviewer): 1.7 months and 1.68 (1.38-1.84) months
Disease control rate (DCR) ([1]; Cohort C (negative for FGF/FGFR alterations), preliminary): 22.2%
PFS Events, % ([1]; Cohort C, 18 evaluable patients): 88.9%
patients with TEAEs with a fatal outcome ([1]; all cohorts, none related to study treatment): Five
Grade 3 or greater TEAE abdominal pain [1, 7]: 6.7%
Grade 3 or greater TEAE arthralgia [1, 7]: 6.7%
Grade 3 or greater TEAE hyponatremia [1, 7]: 7.9%
Grade 3 or greater TEAE hypophosphatemia [1, 7]: 13.5%
TEAE alopecia [1, 7]: 41.6%
TEAE decreased appetite [1, 7]: 37.1%
TEAE diarrhea [1, 7]: 39.3%
TEAE dysgeusia [1, 7]: 36.0%
TEAE fatigue [1, 7]: 36.0%
TEAE hyperphosphatemia [1, 7]: 60.7%
tolerability (in words) ([1]; interim analysis, patients with at least 8 months follow up): generally well tolerated
Solid State Form after competitive slurry ([2]; Acetonitrile (1.7 mL)): Form I
Competitive slurry result (form by XRPD) ([2]; stirred for 15 min): Form II
Competitive slurry result (form by XRPD) ([2]; stirred for 60 min): Form II
Competitive slurry result (form by XRPD) ([2]; stirred for 18 h): Form II
Competitive slurry result (form by XRPD) ([2]; stirred for 3 days): Form II
Solid State Form after competitive slurry ([2]; Ethanol (1.7 mL)): Form I
Solid State Form after competitive slurry ([2]; Iso-propanol (1.7 mL)): Form I
